Experimental data reported in paper PMC9960274, “Peptidic Inhibitors and a Fluorescent Probe for the Selective Inhibition and Labelling of Factor XIIIa Transglutaminase” (Molecules, 2023).
“Also recorded” adds a separate entry of the source. Starred links: 1 amine or outer side, 2 acyl side, 3 side chain; linkers in the order of their positions; H or OH if unused. Non-standard residues stand in square brackets, D forms with d. Residues, ends and D or L forms follow the SMILES beside them. *: point of attachment. RhodamineB = CCN(CC)c1ccc2c(-c3ccccc3C(=O)*)c3ccc(=[N+](CC)CC)cc-3oc2c1; X1 = COC(=O)/C=C/CC[C@H](N[*:1])C(=O)[*:2]; X2 = COC(=O)C=CCCC[C@H](N[*:1])C(=O)[*:2]; X3 = COC(=O)C=CC[C@H](N[*:1])C(=O)[*:2]; Nle = CCCC[C@H](N)C(=O)O; Orn = NCCC[C@H](N)C(=O)O; Dab = NCC[C@H](N)C(=O)O; Acryloyl = C=CC(=O)*; Ahx = NCCCCCC(=O)O

Target: T1, Human TG2 (Homo sapiens, UniProt P21980)
T1 construct: made in house
T1 sequence (P21980 1-687): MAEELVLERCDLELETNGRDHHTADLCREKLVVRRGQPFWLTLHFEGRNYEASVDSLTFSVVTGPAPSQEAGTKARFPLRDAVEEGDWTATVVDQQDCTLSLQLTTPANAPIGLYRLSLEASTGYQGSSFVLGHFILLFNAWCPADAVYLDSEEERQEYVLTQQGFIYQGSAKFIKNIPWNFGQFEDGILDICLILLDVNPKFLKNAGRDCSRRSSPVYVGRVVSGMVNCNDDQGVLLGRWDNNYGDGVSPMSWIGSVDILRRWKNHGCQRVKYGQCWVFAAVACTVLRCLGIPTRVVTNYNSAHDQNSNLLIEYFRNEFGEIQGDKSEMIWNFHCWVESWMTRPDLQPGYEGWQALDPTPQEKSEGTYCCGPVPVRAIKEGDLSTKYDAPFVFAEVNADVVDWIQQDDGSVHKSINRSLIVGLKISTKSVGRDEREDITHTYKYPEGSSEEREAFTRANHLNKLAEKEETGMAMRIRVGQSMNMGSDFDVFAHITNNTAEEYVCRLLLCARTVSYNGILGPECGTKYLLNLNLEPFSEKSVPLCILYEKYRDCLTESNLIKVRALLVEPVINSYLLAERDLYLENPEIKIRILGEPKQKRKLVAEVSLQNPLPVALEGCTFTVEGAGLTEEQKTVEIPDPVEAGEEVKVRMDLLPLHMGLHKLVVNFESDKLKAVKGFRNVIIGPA
Test: Colorimetric AL5 transamidase assay of TG2 inhibition kinetics
Type: biochemical
Details: for TG2 Inh. Mode: Irrev = irreversible, None = no inhibition detected up to 350 μM; for kinact/KI / kinact: irreversible inhibition; for TG2 inhibition: up to 360 µM; for kinact: saturation fit
Experimental: All inhibitors synthesised herein were evaluated for inhibition against FXIIIa, using the fluorescence-quenched A101 isopeptidase assay, and against TG2, using the colorimetric AL5 transamidase assay. The assay substrates A101 and AL5 both present labile bonds that are cleaved by the activities of their corresponding transglutaminases, resulting in the release of a fluorophore or chromophore moiety, respectively. The rate of consumption of these assay substrates, indicated by increases in fluorescence or absorbance over time, can be detected for measuring enzyme activity. Assays were run in duplicate at constant reporter substrate concentration with varying concentrations of inhibitor. The type of inhibition was determined through visual inspection of the fluorescence-time curvature; termination of the enzymatic reaction with the substrate at a plateau lower than the no-inhibitor positive control is indicative of irreversible inhibition. On the other hand, convergence to a common plateau indicates reversible inhibition.
A colorimetric transamidase assay using chromogenic substrate AL5 (Cbz-Glu(ɣ-p-nitrophenyl ester)Gly-OH) was used to determine TG2 inhibition kinetics as described previously. In brief, assays were conducted at 25 °C in 96-well plates, and absorbance at 405 nm was monitored continuously using a BioTek Synergy 4 plate reader. For each compound, 6 inhibitor concentrations were tested, along with positive (no inhibitor) and negative (no enzyme, no inhibitor) controls. All assays were run in duplicate as separate independent experiments. Human TG2 expressed and purified as described previously and stored in aqueous buffer at −80 °C, was first thawed and diluted to a working concentration of 50 mU/mL in the buffer. The diluted enzyme solution was stored on ice. The appropriate amount of distilled water, 125 μL of aqueous buffer (111 mM MOPS, 15.6 mM CaCl2, pH 6.9), the desired amount of inhibitor (from a DMSO stock solution), and 5.0 μL of AL5 (from a 5.56 mM DMSO solution) were added in that order to 7 Eppendorf tubes to reach final volumes of 250 μL per tube. After mixing thoroughly, 180 μL of the mixture from each tube was transferred to plate wells. To initiate the assay, 20 μL of the diluted TG2 solution was added using a multichannel pipette to each well except the negative control, which was treated with water. The final reaction conditions were pH 6.9, 50.0 mM MOPS, 7.0 mM CaCl2, 100 μM AL5, and 5 mU/mL TG2. […] Data collection was then initiated after mixing by quick aspiration, and the assay was allowed to run for 20 min.
The type of inhibition for both TG2 and FXIIIa was primarily determined by visual inspection of kinetic traces. […] This assumption was tested and validated with inhibitor 47 through an A101 substrate spike experiment. Additional A101 (5 μL of 4000 μM stock in DMSO) was added to enzymatic reactions lacking in inhibitor (positive control) and pre-treated with inhibitor (50, 100, 150, 200 μM) after the initial reactions were complete and fluorescence plateaus had been reached. Data collection at 37 °C was re-commenced immediately after the addition, and fluorescence was monitored over time as previously described. On the other hand, inhibitors producing kinetic curves in which earlier and lower plateaus in fluorescence or absorbance were observed as inhibitor concentration was increased were assumed to be operating through irreversible time-dependent covalent inactivation. This assumption was tested and validated with inhibitor 23 through an A101 substrate spike experiment in which an additional 5 μL of A101 substrate stock solution (4000 μM in DMSO) was added to the positive control and highest inhibitor concentration (200 μM) reaction. […]

[1] = small molecule series, irreversible KI for 87 and 88

| TG2 Inh. Mode | TG2 inhibition (small molecule series) | Compound | also measured |
| --- | --- | --- | --- |
| No inhibition; also recorded: None ** |  | C=CC(=O)NCC[C@H](NC(=O)[C@@H](CC(=O)O)NC(C)=O)C(=O)N[C@@H](CCCC)C(=O)N[C@@H](CCCC)C(=O)N[C@@H](CC(C)C)C(=O)N1CCC[C@H]1C(=O)N[C@@H](Cc1c[nH]c2ccccc12)C(=O)N1CCC[C@H]1C(=O)O [Compound 12, Ac-D-Asp-Dab(Acrylamide)-Nle-Nle-Leu-Pro-Trp-Pro-OH] (Ac-[dD][Dab](Acryloyl)[Nle][Nle]LPWP-OH) |  |
| No inhibition; also recorded: None ** |  | C=CC(=O)NCCC[C@H](NC(=O)[C@@H](CC(=O)O)NC(C)=O)C(=O)N[C@@H](CCCC)C(=O)N[C@@H](CCCC)C(=O)N[C@@H](CC(C)C)C(=O)N1CCC[C@H]1C(=O)N[C@@H](Cc1c[nH]c2ccccc12)C(=O)N1CCC[C@H]1C(=O)O [Compound 13] (Ac-[dD][Orn](Acryloyl)[Nle][Nle]LPWP-OH) |  |
| No inhibition; also recorded: None ** |  | C=CC(=O)NCCCC[C@H](NC(=O)[C@@H](CC(=O)O)NC(C)=O)C(=O)N[C@@H](CCCC)C(=O)N[C@@H](CCCC)C(=O)N[C@@H](CC(C)C)C(=O)N1CCC[C@H]1C(=O)N[C@@H](Cc1c[nH]c2ccccc12)C(=O)N1CCC[C@H]1C(=O)O [Compound 14] (Ac-[dD]K(Acryloyl)[Nle][Nle]LPWP-OH) |  |
| Irrev |  | CCCC[C@H](NC(=O)[C@H](CCCC=CC(=O)OC)NC(=O)[C@@H](CC(=O)O)NC(C)=O)C(=O)N[C@@H](CCCC)C(=O)N[C@@H](CC(C)C)C(=O)N1CCC[C@H]1C(=O)N[C@@H](Cc1c[nH]c2ccccc12)C(=O)N1CCC[C@H]1C(=O)O [Compound 47] (Ac-[dD][X2][Nle][Nle]LPWP-OH) | kinact/KI: 530 M⁻¹ s⁻¹ |
|  | No inhibition | C=CC(=O)NCC(NC(=O)CC(=O)O)C(=O)N1CCN(S(=O)(=O)c2cccc3c(N(C)C)cccc23)CC1 (stereo not drawn) [Compound 71] |  |
|  | No inhibition | C=CC(=O)NCC(NC(=O)CC(=O)O)C(=O)N1CCN(C(=O)c2cccc3ccccc23)CC1 (stereo not drawn) [Compound 72] |  |
|  | No inhibition | C=CC(=O)NCC(NC(=O)C1(C(=O)OC)CC1)C(=O)N1CCN(S(=O)(=O)c2cccc3c(N(C)C)cccc23)CC1 (stereo not drawn) [Compound 73] |  |
|  | No inhibition | C=CC(=O)NCC(NC(=O)C1(C(=O)O)CC1)C(=O)N1CCN(S(=O)(=O)c2cccc3c(N(C)C)cccc23)CC1 [Compound 74, Acid-Cyclopropyl-L-Dap(Acryl)-Piperazine-Dansyl] |  |
|  | No inhibition | C=CC(=O)NCC(NC(=O)CCC(=O)O)C(=O)N1CCN(S(=O)(=O)c2cccc3c(N(C)C)cccc23)CC1 [Compound 75, Succinyl-L-Dap(Acryl)-Piperazine-Dansyl] |  |
|  | No inhibition | C=CC(=O)NCC(NC(=O)CCC(=O)O)C(=O)N1CCN(S(=O)(=O)c2cccc3ccccc23)CC1 [Compound 76, Succinyl-L-Dap(Acryl)-Piperazine-Sulfonyl-Naphthalene] |  |
|  | No inhibition | C=CC(=O)NCC(NC(=O)CCC(=O)O)C(=O)N1CCN(C(=O)c2cccc3ccccc23)CC1 [Compound 77, Succinyl-L-Dap(Acryl)-Piperazine-Naphthoyl] |  |
|  | No inhibition | C=CC(=O)NCC(NS(=O)(=O)CC(=O)O)C(=O)N1CCN(S(=O)(=O)c2cccc3c(N(C)C)cccc23)CC1 (stereo not drawn) [Compound 79] |  |
|  | No inhibition | C=CC(=O)NC(CNC(=O)CCC(=O)O)C(=O)N1CCN(C(=O)c2cccc3ccccc23)CC1 (stereo not drawn) [Compound 84] |  |
|  |  | COC(=O)C=CCCC(NC(=O)CCC(=O)O)C(=O)N1CCN(C(=O)c2cccc3ccccc23)CC1 (stereo not drawn) [Compound 87] | kinact/KI: 139 M⁻¹ s⁻¹; kinact: 0.00199 s⁻¹; Ki [1]: 14.3 ± 7 µM |
|  |  | COC(=O)C=CCCC(NC(=O)c1ccccc1C(=O)O)C(=O)N1CCN(C(=O)c2cccc3ccccc23)CC1 (stereo not drawn) [Compound 88] | kinact/KI: 104 M⁻¹ s⁻¹; kinact: 0.0022 s⁻¹; KI (inactivation) [1]: 21.2 ± 8.96 µM; Ki [1]: 21.2 ± 9 µM |
|  |  | CCCC[C@H](NC(=O)[C@H](CC/C=C/C(=O)OC)NC(=O)[C@@H](CC(=O)O)NC(=O)CCCCCNC(=O)[C@@H]1CCCN1C(=O)c1ccccc1-c1c2ccc(=[N+](CC)CC)cc-2oc2cc(N(CC)CC)ccc12)C(=O)N[C@@H](CCCC)C(=O)N[C@@H](CC(C)C)C(=O)N1CCC[C@H]1C(=O)N[C@@H](Cc1c[nH]c2ccccc12)C(=O)N1CCC[C@H]1C(=O)O [Compound 93] (RhodamineB-P[Ahx][dD][X1][Nle][Nle]LPWP-OH) | kinact/KI: 325 M⁻¹ s⁻¹ |

| Compound | TG2 Inh. Mode | TG2 inhibition (small molecule series) | also measured |
| --- | --- | --- | --- |
| CCCC[C@H](NC(=O)[C@H](CC=CC(=O)OC)NC(=O)[C@@H](CC(=O)O)NC(C)=O)C(=O)N[C@@H](CCCC)C(=O)N[C@@H](CC(C)C)C(=O)N1CCC[C@H]1C(=O)N[C@@H](Cc1c[nH]c2ccccc12)C(=O)N1CCC[C@H]1C(=O)O [Compound 45] (Ac-[dD][X3][Nle][Nle]LPWP-OH) | No inhibition; also recorded: lack of inhibition; also recorded: None ** |  |  |
| Ac-D-Asp-Dap(Acrylamide)-Nle-Nle-Leu-Pro-Trp-Pro-OH [Compound 11] | No inhibition; also recorded: None ** |  |  |
